The values that follow come from patent US7960556B2, “Thiadiazole derivatives for the treatment of neuro-degenerative diseases” (NV reMYND, priority 2006, dated 2011).

This assay concerns α-synuclein cytotoxicity in M17-SYNwt cells. Briefly: α-synuclein cytotoxicity assay: LDH leakage from paraquat-treated M17-SYNwt neuroblastoma cells.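 For all read-outs here: paraquat at 32 mM co-added with compound, 40 h exposure, LDH activity released into the culture medium measured, references are DMSO-only cells and paraquat plus DMSO cells.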 Particulars: Homo sapiens, Neuroblastoma cell; for Emax: read-out: % Inhib.

Each structure is given as a SMILES string.

With `Cc1ccc(Cc2nsc(N3CCN(S(=O)(=O)c4ccc(Cl)cc4)CC3)n2)cc1` [compound 66, 1-[4-chlorophenylsulfonyl]-4-[3-(4-methylbenzyl)-1,2,4-thiadiazol-5-yl]piperazine], the Emax turned out to be 81%. The same measure, in the same setting: the result for `Cc1ccc(Cc2nsc(N3CCN(S(=O)(=O)c4ccc(C(C)(C)C)cc4)CC3)n2)cc1` [compound 67, 1-[4-tert-butylphenylsulfonyl]-4-[3-(4-methylbenzyl)-1,2,4-thiadiazol-5-yl]piperazine] reads 41%. For `COc1ccc(S(=O)(=O)N2CCN(c3nc(Cc4ccc(C)cc4)ns3)CC2)cc1` [compound 68, 1-[4-methoxyphenylsulfonyl]-4-[3-(4-methylbenzyl)-1,2,4-thiadiazol-5-yl]piperazine], a half-maximal response (EC50) required 0.000255 µM and the Emax came to 53%. Regarding `CC(C)(C)c1ccc(S(=O)(=O)N2CCN(c3nc(Cc4ccc(Cl)cc4)ns3)CC2)cc1` [compound 69, 1-[4-tert-butylphenylsulfonyl]-4-[3-(4-chlorobenzyl)-1,2,4-thiadiazol-5-yl]piperazine], the Emax was 31%.

In the case of `Cc1ccc(Cc2nsc(N3CCN(S(=O)(=O)c4cccc5cccnc45)CC3)n2)cc1` [compound 70, 1-[quinoline-8-sulfonyl]-4-[3-(4-methylbenzyl)-1,2,4-thiadiazol-5-yl]piperazine], the Emax was found to be 44%. Turning to `Cc1ccc(Cc2nsc(N3CCN(S(=O)(=O)c4ccc([N+](=O)[O-])cc4)C(C)C3)n2)cc1` (stereo not drawn) [compound 71, 1-[4-nitrophenylsulfonyl]-4-[3-(4-methylbenzyl)-1,2,4-thiadiazol-5-yl]-2-methylpiperazine], the Emax worked out at 33%. Still for that read-out and setting: the result for `CC1CN(c2nc(Cc3ccc(F)cc3)ns2)CCN1S(=O)(=O)c1ccc([N+](=O)[O-])cc1` (stereo not drawn) [compound 73, 1-[4-nitrophenylsulfonyl]-4-[3-(4-fluorobenzyl)-1,2,4-thiadiazol-5-yl]-2-methylpiperazine] reads 33%. Regarding `COc1ccc(S(=O)(=O)N2CCN(c3nc(Cc4ccc(F)cc4)ns3)CC2)cc1` [compound 74, 1-[4-methoxyphenylsulfonyl]-4-[3-(4-fluorobenzyl)-1,2,4-thiadiazol-5-yl]piperazine], it took 0.000105 µM to reach a half-maximal effect (EC50) and the Emax amounted to 44%. Consider `O=S(=O)(Cc1ccccc1)N1CCN(c2nc(Cc3ccc(Cl)cc3)ns2)CC1` [compound 76, 1-(benzylsulfonyl)-4-[3-(4-chlorobenzyl)-1,2,4-thiadiazol-5-yl]piperazine], for which the Emax was 40%. The same measure, in the same setting: the result for `Cc1ccc(Cc2nsc(N3CCN(S(=O)(=O)Cc4ccccc4)CC3)n2)cc1` [compound 77, 1-(benzylsulfonyl)-4-[3-(4-methylbenzyl)-1,2,4-thiadiazol-5-yl]piperazine] reads 81%. For the compound `CCCCS(=O)(=O)N1CCN(c2nc(Cc3ccc(Cl)cc3)ns2)CC1` [compound 81, 1-(butylsulfonyl)-4-[3-(4-chlorobenzyl)-1,2,4-thiadiazol-5-yl]piperazine], a half-maximal response (EC50) required 0.35 µM and the Emax stood at 80%. On the same counts, the results for `CCCCCCCCS(=O)(=O)N1CCN(c2nc(Cc3ccc(C)cc3)ns2)CC1` [compound 82, 1-(octylsulfonyl)-4-[3-(4-methylbenzyl)-1,2,4-thiadiazol-5-yl]piperazine] are 1.58 µM and 50%.

`CCCCS(=O)(=O)N1CCN(c2nc(Cc3ccc(C)cc3)ns2)CC1` [compound 83, 1-(butylsulfonyl)-4-[3-(4-methylbenzyl)-1,2,4-thiadiazol-5-yl]piperazine]: the response was half-maximal at 2.64 µM (EC50) and the Emax was found to be 36%. Regarding `CCS(=O)(=O)N1CCN(c2nc(Cc3ccc(Cl)cc3)ns2)CC1` [compound 84, 1-(ethylsulfonyl)-4-[3-(4-chlorobenzyl)-1,2,4-thiadiazol-5-yl]piperazine], the concentration giving a half-maximal response (EC50) was determined as 3.48 µM and the Emax amounted to 53%. The corresponding values for `Cc1ccc(Cc2nsc(N3CCN(S(=O)(=O)C(C)C)CC3)n2)cc1` [compound 85, 1-(isopropylsulfonyl)-4-[3-(4-methylbenzyl)-1,2,4-thiadiazol-5-yl]piperazine] are 3.65 µM and 69%. The corresponding values for `CC1CN(c2nc(Cc3ccc(Cl)cc3)ns2)CCN1C(=O)/C=C/c1ccccc1` (stereo not drawn) [compound 86, 1-[(2E)-3-phenylprop-2-enoyl]-4-[3-(4-chlorobenzyl)-1,2,4-thiadiazol-5-yl]2-methylpiperazine] are 1.13 µM and 81%. On the same counts, the results for `CC1CN(c2nc(Cc3ccc(F)cc3)ns2)CCN1C(=O)/C=C/c1ccccc1` (stereo not drawn) [compound 87, 1-[(2E)-3-phenylprop-2-enoyl]-4-[3-(4-fluorobenzyl)-1,2,4-thiadiazol-5-yl]-2-methylpiperazine] are 2.49 µM and 94%. Consider `O=C(/C=C/c1ccccc1)N1CCN(c2nc(Cc3ccc(Cl)cc3)ns2)CC1` [compound 88, [(2E)-3-phenylprop-2-enoyl]-4-[3-(4-chlorobenzyl)-1,2,4-thiadiazol-5-yl]piperazine], for which the Emax was found to be 72%.

With `CC1CN(c2nc(Cc3ccc(F)cc3)ns2)CCN1C(=O)CCc1ccccc1` (stereo not drawn) [compound 89, 1-(3-phenylpropanoyl)-4-[3-(4-fluorobenzyl)-1,2,4-thiadiazol-5-yl]-2-methylpiperazine], the EC50 came to 0.6 µM and the Emax turned out to be 86%. `O=C(CCc1ccccc1)N1CCN(c2nc(Cc3ccc(F)cc3)ns2)CC1` [compound 90, 1-(3-phenylpropanoyl)-4-[3-(4-fluorobenzyl)-1,2,4-thiadiazol-5-yl]piperazine]: the midpoint of the response, the EC50, lay at 1.41 µM and the Emax stood at 73%. On the same counts, the results for `Cc1ccc(Cc2nsc(N3CCN(C/C=C/c4ccccc4)CC3)n2)cc1` [compound 91, 1-[3-phenylprop-2-enyl]-4-[3-(4-methylbenzyl)-1,2,4-thiadiazol-5-yl]piperazine] are 0.71 µM and 90%. The corresponding values for `Clc1ccc(Cc2nsc(N3CCN(C/C=C/c4ccccc4)CC3)n2)cc1` [compound 92, 1-[3-phenylprop-2-enyl]-4-[3-(4-chlorobenzyl)-1,2,4-thiadiazol-5-yl]piperazine] are 0.75 µM and 69%. Regarding `Fc1ccc(Cc2nsc(N3CCN(C/C=C/c4ccccc4)CC3)n2)cc1` [compound 93, 1-[3-phenylprop-2-enyl]-4-[3-(4-fluorobenzyl)-1,2,4-thiadiazol-5-yl]piperazine], the EC50 came out at 1.99 µM and the Emax worked out at 91%.

For the compound `CCCCCc1ccc(C(=O)NCCN2CCN(c3nc(Cc4ccc(F)cc4)ns3)CC2)cc1` [compound 94, 4-pentyl-N-{2-[4-[3-(4-fluorobenzyl)-1,2,4-thiadiazol-5-yl]piperazin-1-yl]ethyl}benzamide], a half-maximal effect (EC50) was put at 0.35 µM and the Emax turned out to be 90%. `CCCCc1ccc(C(=O)NCCN2CCN(c3nc(Cc4ccc(F)cc4)ns3)CC2)cc1` [compound 95, 4-butyl-N-{2-[4-[3-(4-fluorobenzyl)-1,2,4-thiadiazol-5-yl]piperazin-1-yl]ethyl}benzamide]: a half-maximal effect (EC50) was put at 0.38 µM and the Emax is 78%. Take `CCCCCCc1ccc(C(=O)NCCN2CCN(c3nc(Cc4ccc(F)cc4)ns3)CC2)cc1` [compound 96, 4-hexyl-N-{2-[4-[3-(4-fluorobenzyl)-1,2,4-thiadiazol-5-yl]piperazin-1-yl]ethyl}benzamide]: the EC50 amounted to 0.8 µM and the Emax was 72%.

As for `O=C(NCCN1CCN(c2nc(Cc3ccc(F)cc3)ns2)CC1)c1ccc(Cl)cc1` [compound 97, 4-chloro-N-{2-[4-[3-(4-fluorobenzyl)-1,2,4-thiadiazol-5-yl]piperazin-1-yl]ethyl}benzamide], the EC50 turned out to be 1.29 µM and the Emax amounted to 68%. The corresponding values for `O=C(NCCN1CCN(c2nc(Cc3ccc(F)cc3)ns2)CC1)c1cc(Cl)cc(Cl)c1` [compound 98, 3,5-dichloro-N-{2-[4-[3-(4-fluorobenzyl)-1,2,4-thiadiazol-5-yl]piperazin-1-yl]ethyl}benzamide] are 1.42 µM and 102%.

As for `Cc1ccccc1C(=O)NCCN1CCN(c2nc(Cc3ccc(F)cc3)ns2)CC1` [compound 99, 2-methyl-N-{2-[4-[3-(4-fluorobenzyl)-1,2,4-thiadiazol-5-yl]piperazin-1-yl]ethyl}benzamide], the EC50 amounted to 1.58 µM and the Emax is 97%. On the same counts, the results for `O=C(NCCN1CCN(c2nc(Cc3ccc(Cl)cc3)ns2)CC1)c1cccc(F)c1` [compound 100, 3-fluoro-N-{2-[4-[3-(4-chlorobenzyl)-1,2,4-thiadiazol-5-yl]piperazin-1-yl]ethyl}benzamide] are 1.79 µM and 75%. On to `Cc1ccc(C(=O)NCCN2CCN(c3nc(Cc4ccc(F)cc4)ns3)CC2)cc1` [compound 101, 4-methyl-N-{2-[4-[3-(4-fluorobenzyl)-1,2,4-thiadiazol-5-yl]piperazin-1-yl]ethyl}benzamide], for which the midpoint of the response, the EC50, lay at 1.94 µM and the Emax was found to be 68%.

Consider `O=C(NCCN1CCN(c2nc(Cc3ccc(F)cc3)ns2)CC1)c1ccc(F)cc1` [compound 102, 4-fluoro-N-{2-[4-[3-(4-fluorobenzyl)-1,2,4-thiadiazol-5-yl]piperazin-1-yl]ethyl}benzamide], for which a half-maximal response (EC50) required 1.99 µM and the Emax stood at 80%. As to `CCc1ccc(C(=O)NCCN2CCN(c3nc(Cc4ccc(F)cc4)ns3)CC2)cc1` [compound 103, 4-ethyl-N-{2-[4-[3-(4-fluorobenzyl)-1,2,4-thiadiazol-5-yl]piperazin-1-yl]ethyl}benzamide], it took 2.32 µM to reach a half-maximal effect (EC50) and the Emax turned out to be 139%.

In the case of `O=C(NCCN1CCN(c2nc(Cc3ccc(F)cc3)ns2)CC1)c1ccccc1` [compound 104, N-{2-[4-[3-(4-fluorobenzyl)-1,2,4-thiadiazol-5-yl]piperazin-1-yl]ethyl}benzamide], it took 3.82 µM to reach a half-maximal effect (EC50) and the Emax was 65%. For the compound `O=C(NCCN1CCN(c2nc(Cc3ccc(F)cc3)ns2)CC1)c1cccc(F)c1` [compound 105, 3-fluoro-N-{2-[4-[3-(4-fluorobenzyl)-1,2,4-thiadiazol-5-yl]piperazin-1-yl]ethyl}benzamide], the Emax came to 115%.

Broadly, the EC50 is the concentration needed to bring the measured effect to its halfway point.
